Test system: Plasmodium berghei
Assay: Luciferase/luciferin-expressing antifolate-resistant parasites were used to infect a culture of HepG2 cells that were pre-incubated with compounds. Infected hepatocytes emit light due to the luciferase reaction. Assay results are presented as the percent inhibition of light emission compared to control. […]
Type: functional
Conditions: sporozoite; for IC90: read-out: LUCIFERASE INFECTION ASSAY - IC90

## COc1ccc(/C=C/C(=O)Nc2ccc(C34CC5CC(CC(O)(C5)C3)C4)cc2)cc1OC
HEPG2TOX_HILL_SLOPE 4.85, 2.53, HEPG2TOX_R_SQUARED 0.902, 0.960, PBLUC_HILL_SLOPE 2.45, PBLUC_R_SQUARED 0.68, read-out: LUCIFERASE INFECTION ASSAY - IC50
  IC50: 1.99 µM
  IC90: 4.89 µM

## CC(C)[C@H](NC(=O)c1ccccc1Cl)C(=O)Nc1nc(-c2ccccn2)cs1
HEPG2TOX_HILL_SLOPE 4.61, HEPG2TOX_R_SQUARED 0.937, PBLUC_HILL_SLOPE 2.78, PBLUC_R_SQUARED 0.749, read-out: LUCIFERASE INFECTION ASSAY - IC50
  IC50: 2.89 µM
  IC90: 6.36 µM

## CC1(C(=O)NCc2ccco2)Cc2c(-c3ccccc3)ccnc2O1 (configuration not stated)
HEPG2TOX_HILL_SLOPE 4.72, HEPG2TOX_R_SQUARED 0.753, PBLUC_HILL_SLOPE 10.4, PBLUC_R_SQUARED 0.157, read-out: LUCIFERASE INFECTION ASSAY - IC50
  IC50: 3.23 µM
  IC90: 3.99 µM

## CS(=O)(=O)Nc1cccc(-c2cn3c(-c4cccs4)cnc3cn2)c1
HEPG2TOX_HILL_SLOPE 4.93, HEPG2TOX_R_SQUARED 0.12, read-out: LUCIFERASE INFECTION ASSAY - IC50
  IC50: > 8.91 µM
  IC90: > 8.91 µM

## O=C(Nc1nccs1)c1cc(-c2ccccc2)c(C(F)(F)F)s1
HEPG2TOX_HILL_SLOPE 4.77, HEPG2TOX_R_SQUARED 0.804, PBLUC_HILL_SLOPE 25.8, PBLUC_R_SQUARED 0.401, read-out: LUCIFERASE INFECTION ASSAY - IC50
  IC50: 7.96 µM
  IC90: 8.66 µM

## CC1=C(c2nc(-c3ccc(C)cc3)no2)C(c2ccco2)NC(=S)N1 (configuration not stated)
HEPG2TOX_HILL_SLOPE 4.63, HEPG2TOX_R_SQUARED 0.779, PBLUC_HILL_SLOPE 2.07, PBLUC_R_SQUARED 0.517, read-out: LUCIFERASE INFECTION ASSAY - IC50
  IC50: 7.61 µM
  IC90: > 10 µM

## COc1ccc(OC)c(CCNc2nc3cnc(-c4cccc(OC(F)(F)F)c4)cc3n2C)c1
HEPG2TOX_HILL_SLOPE 4.6, HEPG2TOX_R_SQUARED 0.893, PBLUC_HILL_SLOPE 3.53, PBLUC_R_SQUARED 0.694, read-out: LUCIFERASE INFECTION ASSAY - IC50
  IC50: 2.53 µM
  IC90: 4.72 µM

## N#Cc1c(N=Cc2c(O)n(-c3ccc(Br)cn3)c(=O)c3ccccc23)sc2c1CCC2
HEPG2TOX_HILL_SLOPE 5.03, HEPG2TOX_R_SQUARED 0.905, PBLUC_HILL_SLOPE 1.74, PBLUC_R_SQUARED 0.542, read-out: LUCIFERASE INFECTION ASSAY - IC50
  IC50: 6.14 µM
  IC90: > 10 µM

## N#C/C(=C\c1ccc(Cl)cc1Cl)c1ccc(O)cc1
HEPG2TOX_HILL_SLOPE 4.92, HEPG2TOX_R_SQUARED 0.97, PBLUC_HILL_SLOPE 12.5, PBLUC_R_SQUARED 0.376, read-out: LUCIFERASE INFECTION ASSAY - IC50
  IC50: 10.5 µM
  IC90: > 11.4 µM

## Cc1c(-c2ccccc2)sc2[nH]c(SC(C(=O)c3ccccc3)c3ccccc3)nc(=O)c12 (configuration not stated)
HEPG2TOX_HILL_SLOPE 4.76, HEPG2TOX_R_SQUARED 0.813, PBLUC_HILL_SLOPE 2.74, PBLUC_R_SQUARED 0.111, read-out: LUCIFERASE INFECTION ASSAY - IC50
  IC50: 6.76 µM
  IC90: > 10 µM

## Cc1sc2ncnc(N/N=C/c3cn(-c4ccccc4)nc3-c3ccc4c(c3)OCCO4)c2c1C
HEPG2TOX_HILL_SLOPE 4.65, HEPG2TOX_R_SQUARED 0.952, PBLUC_HILL_SLOPE 26.5, PBLUC_R_SQUARED 0.19, read-out: LUCIFERASE INFECTION ASSAY - IC50
  IC50: 3.34 µM
  IC90: 3.63 µM

## Cc1oc(C(C)(C)C)cc1-c1cc(NC(=O)Nc2ccccc2C#N)n(-c2cc(C(F)(F)F)cc(C(F)(F)F)c2)n1
HEPG2TOX_HILL_SLOPE 5.04, HEPG2TOX_R_SQUARED 0.982, PBLUC_HILL_SLOPE 7.22, PBLUC_R_SQUARED 0.381, read-out: LUCIFERASE INFECTION ASSAY - IC50
  IC50: 2.22 µM
  IC90: 3 µM

## COCCCNc1nccc2nc(-c3cccc(OC(F)(F)F)c3)[nH]c12
HEPG2TOX_HILL_SLOPE 4.74, HEPG2TOX_R_SQUARED 0.77, PBLUC_HILL_SLOPE 3.71, PBLUC_R_SQUARED 0.224, read-out: LUCIFERASE INFECTION ASSAY - IC50
  IC50: 5.72 µM
  IC90: > 10 µM

## Cc1cc[n+](CC(=O)Nc2ccc(Br)c(C)c2)cc1
HEPG2TOX_HILL_SLOPE 5.04, HEPG2TOX_R_SQUARED 0.103, PBLUC_HILL_SLOPE 18.3, PBLUC_R_SQUARED 0.0767, read-out: LUCIFERASE INFECTION ASSAY - IC50
  IC50: 9.35 µM
  IC90: > 10 µM

## COc1cc(-c2cnn3ccc(Nc4ccc(C(C)C)cc4)nc23)cc(OC)c1OC
HEPG2TOX_HILL_SLOPE 4.98, HEPG2TOX_R_SQUARED 0.891, PBLUC_HILL_SLOPE 3.46, PBLUC_R_SQUARED 0.366, read-out: LUCIFERASE INFECTION ASSAY - IC50
  IC50: 2.63 µM
  IC90: 4.97 µM

## C/C(=N\NC(=N)N)c1ccc(C2CCCCC2)cc1
HEPG2TOX_HILL_SLOPE 4.72, HEPG2TOX_R_SQUARED 0.94, read-out: LUCIFERASE INFECTION ASSAY - IC50
  IC50: > 10 µM
  IC90: > 10 µM

## CC(=O)c1sc(SCCS(=O)(=O)c2ccc(Cl)cc2)c2c1CCCC2=O
HEPG2TOX_HILL_SLOPE 4.99, HEPG2TOX_R_SQUARED 0.387, PBLUC_HILL_SLOPE 14.8, PBLUC_R_SQUARED 0.11, read-out: LUCIFERASE INFECTION ASSAY - IC50
  IC50: > 7.69 µM
  IC90: > 7.69 µM

## O=[N+]([O-])c1ccc(SCCO)c2nonc12
HEPG2TOX_HILL_SLOPE 4.76, HEPG2TOX_R_SQUARED 0.8, PBLUC_HILL_SLOPE 15.1, PBLUC_R_SQUARED 0.318, read-out: LUCIFERASE INFECTION ASSAY - IC50
  IC50: 11 µM
  IC90: 12.8 µM

## CCC(C)NC(=O)c1c(NC(=O)c2cc(F)ccc2F)nc2ccc(C)cn12 (configuration not stated)
HEPG2TOX_HILL_SLOPE 5, HEPG2TOX_R_SQUARED 0.803, PBLUC_HILL_SLOPE 11.7, PBLUC_R_SQUARED 0.232, read-out: LUCIFERASE INFECTION ASSAY - IC50
  IC50: 2.78 µM
  IC90: 3.36 µM

## CCOc1ccc(C=C(c2nc3ccccc3s2)c2nc3ccccc3s2)cc1OC
HEPG2TOX_HILL_SLOPE 4.58, HEPG2TOX_R_SQUARED 0.874, PBLUC_HILL_SLOPE 9.07, PBLUC_R_SQUARED 0.629, read-out: LUCIFERASE INFECTION ASSAY - IC50
  IC50: 3.54 µM
  IC90: 4.51 µM

## CCN1C(=O)N(CCCc2cccnc2)C(=O)C12CCN(Cc1ccc(-c3ccccc3C)cc1)CC2
HEPG2TOX_HILL_SLOPE 4.7, HEPG2TOX_R_SQUARED 0.961, PBLUC_HILL_SLOPE 9.72, PBLUC_R_SQUARED 0.497, read-out: LUCIFERASE INFECTION ASSAY - IC50
  IC50: 2.14 µM
  IC90: 2.68 µM

## CC12CCC(=O)C(C(F)(F)F)=C1C=CC1C2CCC2(C)C(O)CCC12 (configuration not stated)
HEPG2TOX_HILL_SLOPE 4.77, HEPG2TOX_R_SQUARED 0.78, PBLUC_HILL_SLOPE 14.8, PBLUC_R_SQUARED 0.24, read-out: LUCIFERASE INFECTION ASSAY - IC50
  IC50: 3.1 µM
  IC90: 3.6 µM

## Cn1nnnc1Sc1nc(-c2ccccc2)nc2ccccc12
HEPG2TOX_HILL_SLOPE 4.8, HEPG2TOX_R_SQUARED 0.994, PBLUC_HILL_SLOPE 8.61, PBLUC_R_SQUARED 0.614, read-out: LUCIFERASE INFECTION ASSAY - IC50
  IC50: 3.95 µM
  IC90: 5.09 µM

## CC(=O)c1cccc(-c2ccc3ncc(-c4cccc(O)c4)n3n2)c1
HEPG2TOX_HILL_SLOPE 4.7, HEPG2TOX_R_SQUARED 0.977, PBLUC_HILL_SLOPE 30, PBLUC_R_SQUARED 0.547, read-out: LUCIFERASE INFECTION ASSAY - IC50
  IC50: 3.34 µM
  IC90: 3.6 µM

## COc1cc(OC)cc(-c2cnc3cnc(-c4ccc(N5CCN(C)CC5)nc4)cn23)c1
HEPG2TOX_HILL_SLOPE 4.69, HEPG2TOX_R_SQUARED 0.215, PBLUC_HILL_SLOPE 12, PBLUC_R_SQUARED 0.625, read-out: LUCIFERASE INFECTION ASSAY - IC50
  IC50: 7.27 µM
  IC90: > 7.67 µM

## CCS(=O)(=O)c1ncc(Cl)c(C(=O)Nc2cc(Cl)cc(Cl)c2)n1
HEPG2TOX_HILL_SLOPE 4.63, HEPG2TOX_R_SQUARED 0.595, PBLUC_HILL_SLOPE 15.4, PBLUC_R_SQUARED 0.531, read-out: LUCIFERASE INFECTION ASSAY - IC50
  IC50: 2.76 µM
  IC90: 3.19 µM

## COc1cc(/C=C/C(=O)c2cccc(Cl)c2)cc(Br)c1OCC(=O)N(C)C
HEPG2TOX_HILL_SLOPE 4.93, 12.4, HEPG2TOX_R_SQUARED 0.976, 0.384, PBLUC_HILL_SLOPE 9.73, 46.2, PBLUC_R_SQUARED 0.151, 0.563, read-out: LUCIFERASE INFECTION ASSAY - IC50
  IC50: 3.93 µM
  IC90: 4.57 µM

## O=C(c1c[nH]c(-c2ccnc(N3CCCC3)c2)c1)c1cc(Cl)ccc1O
HEPG2TOX_HILL_SLOPE 4.74, 0.999, HEPG2TOX_R_SQUARED 0.925, 0.982, PBLUC_HILL_SLOPE 1.70, 2.23, PBLUC_R_SQUARED 0.381, 0.812, read-out: LUCIFERASE INFECTION ASSAY - IC50
  IC50: 0.598 µM
  IC90: 1.6 µM

## Cc1ccc(C(C)NC(=O)Cc2c(C)[nH]c(-c3ccccn3)nc2=O)cc1 (configuration not stated)
HEPG2TOX_HILL_SLOPE 4.86, HEPG2TOX_R_SQUARED 0.498, PBLUC_HILL_SLOPE 12, PBLUC_R_SQUARED 0.399, read-out: LUCIFERASE INFECTION ASSAY - IC50
  IC50: 9.36 µM
  IC90: > 10 µM

## CCCOc1ccc2cc(C(=O)c3c(C)[nH]c(C)c3C(=O)OCC)oc2c1
HEPG2TOX_HILL_SLOPE 4.85, HEPG2TOX_R_SQUARED 0.69, PBLUC_HILL_SLOPE 11.9, PBLUC_R_SQUARED 0.276, read-out: LUCIFERASE INFECTION ASSAY - IC50
  IC50: 9.4 µM
  IC90: > 10 µM

## O=S(=O)(c1ccc2ccccc2c1)N1CCCC1c1ccncc1 (configuration not stated)
HEPG2TOX_HILL_SLOPE 4.75, HEPG2TOX_R_SQUARED 0.828, PBLUC_HILL_SLOPE 11, PBLUC_R_SQUARED 0.196, read-out: LUCIFERASE INFECTION ASSAY - IC50
  IC50: 9.32 µM
  IC90: > 10 µM

— ChEMBL document CHEMBL4483862, “Open-source discovery of chemical leads for next-generation chemoprotective antimalarials” (2018)
